Ends that are not written are not given here.
Assays:
[1] = tested on: refractory metastatic melanoma; experiment: Human vaccination study: clinical outcome; assay type: in vivo; settings: one line per patient
From the text: Evaluation of tumor regression is a secondary endpoint in this study. Tumor masses are characterized carefully with bidimensional measurements.
Criteria for a Partial Response (PR): 50% reduction in the sum of the product of the largest perpendicular diameters of the indicator lesions identified prior to therapy.
Criteria for a Complete Response (CR): total disappearance of all evidence of tumor without appearance of new lesions.
Criteria for Progressive Disease (PD): appearance of new lesions; and/or fifty percent increase in the sum of the product of the largest perpendicular diameters of the indicator lesions.
Criteria for Stable Disease (SD): Failure to meet the criteria for a Partial Response, Complete Response, or Progressive Disease.

[2] = tested on: melanoma cell lines expressing MAGE-3; settings: activated B cells or dendritic cells, HLA-A2 donor; only if IL-12 included during initial stimulation; cited from earlier work
[3] = tested on: peptide-specific, IFN-γ-producing CD8+ T cells; experiment: Human vaccination study: peptide-specific T cell response; settings: one line per patient
Procedure: Following immunization, assays for peptide specific CTL activity and cytokine production, in particular IFN-γ were conducted.
For each vaccination, 100 cc heparinized blood was obtained and PBMC isolated by Lymphoprep centrifugation. A portion of cells was set aside and separated into CD8+ and CD8-fractions for cryopreservation.
Pulsed PBMC were irradiated (2000 rad), centrifuged, and resuspended in 2 cc DPBS for injection.
Injection of pulsed PBMC was performed subcutaneously, divided between 2 sites, either in upper arms or proximal legs.
rhIL-12, at the assigned dose level (ng/kg), was injected subcutaneously near one of the two vaccine sites.
The entire procedure was repeated every 3 weeks, with clinical reevaluation every 3 cycles.
In vitro expansion of CD8^+ T cells for testing was performed using minimal activation conditions: peptide-pulsed CD8-negative cells as APCs, only 10 U/ml rIL-2 added on day 2 of each stimulation, with one 6-day stimulation followed by a second 4-5 day stimulation.

[4] = Relative hydrophilicity/solubility of tumor peptides; assay type: physicochemical
Procedure: Peptides encoded by several of the unique tumor antigens of the tum^− variants have been defined, such as the P198 peptide used in one of the examples herein. […] Therefore, initial peptide-based immunization studies were performed using the more soluble P198 peptide. Information gained was then examined using P1A peptide as well. Studies with P1A are important in order to measure efficacy of immunization in vivo in terms of protection against living tumor challenge and regression of pre-established tumors. These types of studies would not be possible with P198 because that tumor is rejected spontaneously.

[5] = cited from earlier work
[6] = cited from earlier work; remark: listed apart in the source
[7] = room temperature; cited from earlier work
[8] = tested on: advanced renal cell carcinoma; settings: cited from earlier work

FLWGPRALV [Mage3]
Clinical Outcome ([1]; IL-12 dose 0): PD (appearance of new lesions; and/or fifty percent increase in the sum of the product of the largest perpendicular diameters of the indicator lesions) | Clinical Outcome ([1]; IL-12 dose 30 ng/kg): PD (appearance of new lesions; and/or fifty percent increase in the sum of the product of the largest perpendicular diameters of the indicator lesions) | Clinical Outcome ([1]; IL-12 dose 100 ng/kg): PD (appearance of new lesions; and/or fifty percent increase in the sum of the product of the largest perpendicular diameters of the indicator lesions) | Induction of specific CTL [2]: specific CTL induced | Evidence Immunized? ([3]; IL-12 dose 0): No | Evidence Immunized? ([3]; IL-12 dose 30 ng/kg): Yes

KYQAVTTTL [P198 peptide]
Hydrophilicity relative to P1A peptide [4]: more hydrophilic than the P1A peptide

rhIL-12: recombinant human interleukin-12, manufactured by the Genetics Institute
Tolerability ([5]; in vivo): well tolerated | Renal cell carcinoma patients with a minor response ([5]; subcutaneous schedule): Two | Toxicities ([6]; intravenous, 3-1000 ng/kg/day): transient cytopenias (nadirs occurring 2-5 days after treatment), reversible increases of transaminases and bilirubin, transient hyperglycemia, stomatitis, and capillary leak syndrome | Maximally tolerated dose ([6]; intravenous, single test dose, 2 wk later daily for 5 days, every 3 wk): 500 ng/kg/day | Tumor responses ([6]; patients with various malignancies): several tumor responses observed | Time within which unit doses in a syringe must be used [7]: ≤ 4 h | Patients requiring hospitalization for adverse events ([8]; 500 ng/kg/day intravenously 5 times per wk, 16 day rest): 12 of the 17 | Deaths attributed to rhIL-12 ([8]; 500 ng/kg/day intravenously): Two | Patient deaths ([8]; 500 ng/kg/day intravenously): 4
